Results reported in patent US20260200923A1, “HETEROCYCLIC COMPOUNDS TARGETING THE NUDT5 PROTEIN” (Oxford University Innovation Limited, priority 2022, published 2026).

What was measured:
Type in all cases: cell-based
NUDT5-CRBN interaction = molecular target: T1, NUDT5-CRBN interaction (Homo sapiens, UniProt Q96SW2+Q9UKK9); assay: NanoBRET ternary complex formation (protein-protein interaction) assay; conditions: HEK293 cells, 4 h
T1 construct: expressed in transfected cells; host or cells: HEK293
Experimental: For NanoBRET protein-protein interaction assay, NanoBRET Nano-Glo Detection System (N1662, Promega) was used according to the manufacturer's instruction. In brief, 220,000 HEK293 cells/ml was seeded in a 6-well plate. After 6 h, N-terminal nanoLuc NUDT5 and Halo-tag CRBN were then transfected into the cells using Fugene HD transfection reagent (E2312, Promega). The transfected HEK293 (220,000 cells/ml) were then replated onto a 384-well plate containing compounds. After 4 h incubation, NanoLuc substrate was added into each well and the signals were measured by PHERAstar Microplate Reader.
Compounds were dispensed in the 384-well plates by using Echo Acoustic Dispenser.

HAP-1 cells = assay: 6-thioguanine assay (CellTiter-Glo viability); conditions: 0.2 μg/ml 6-thioguanine, 72 h; HAP1 (and NB4, FIG. 11)
Experimental: NB-4 and HAP1 cells (1000 cells/well in 40 uL) were seeded onto a 384-well plate containing compounds. DMSO or 0.2 μg/ml 6-thioguanine (A4882, Sigma-Aldrich) was added into respective wells. After 72 h incubation cell viability was measured by using CellTiter-Glo 2.0 Assay (G9242, Promega). Compounds in the 384-well plates were prepared by using Echo Acoustic Dispenser.

MTHFD1^K56R cells = assay: growth of MTHFD1^K56R cells in adenosine-containing media; conditions: 72 h
Experimental: HAP1 (KBM7-derived, Horizon Discovery, C859), and HAP1 MTHFD1^KO, MTHFD1^K56R, and MTHFD1^K386E cell lines were cultured in Iscove's Modified Dulbecco's Medium (IMDM, Sigma), supplemented with 10% Fetal Bovine Serum (FBS, Sigma) and 1% Penicillin/Streptomycin (P/S, Sigma).
MTHFD1^KO cells in dialyzed FBS media were treated with a single nucleotide or folic acid metabolite for 72 hours. Cells were then stained with Hoechst, imaged, and counted using an Operetta (Perkin Elmer). For the AMPK activator studies, cells were stained with Hoechst, imaged, and counted using an Opera (Perkin Elmer). Similarly, MTHFD1^K56R cells in dialyzed FBS media were treated with adenosine for 72 hours. Cells were then stained with Hoechst, imaged, and counted using an Operetta (Perkin Elmer).

NUDT5 = NUDT5 (Homo sapiens, UniProt Q9UKK9); assay: NUDT5 degradation by Western blot in HEK293 cells; set-up: endogenous in cells; host or cells: HEK293 (also CRBN knock-out HEK293 for A13)
Experimental: For Western blots, proteins were separated on polyacrylamide gels with SDS running buffer (50 mM Tris, 380 mM Glycine, 7 mM SDS) and transferred to PVDF membranes. All membranes were then blocked with blocking buffer (5% w/v milk powder, BioRad) in TBST (50 mM Tris (tris(hydroxymethylaminomethane), 150 mM NaCl, 0.05% (v/v) Tween 20, adjusted to pH 7.6) Proteins were probed with antibodies against phospho-AMPK (50081S, 1:2000, Cell Signaling Technologies), AMPK (5832S, 1:2000, Cell Signaling Technologies), PML (ab179466, 1:1000, abeam), PARP8 (NBP213733, 1:1000, Novus Biologicals), ATF2/7 (82870, 1:1000, Cell Signaling Technologies), alpha-Tubulin (ab7291, 1:1000, Abeam), phospho-UBTF (ab182583, 1:1000, abeam), UBTF (HPA006385, 1:1000, Sigma), RBM38 (AV40862, 1:1000, Sigma), or NUDT5 (ab129172, 1:1000, abeam), detected by HRP (horse-radish peroxidase) conjugated donkey anti-rabbit IgG antibody (Pierce) or donkey anti-mouse antibody IgG antibody (Pierce) and visualized with Clarity ECL Western Blotting substrate (BioRad), according to provided protocol.

NUDT5-PPAT interaction = molecular target: T2, NUDT5-PPAT interaction (Homo sapiens, UniProt Q9UKK9); assay: immunoprecipitation of endogenous PPAT; conditions: HAP1 cells, 100 nM, 20 h
T2 construct: endogenous in cells; host or cells: HAP1 WT
Experimental: For detecting TH5427 interactors and the PPAT-NUDT5 interaction, protein samples were prepared using RIPA buffer containing benzonase (E1014-25KU, Sigma-Aldrich). Protein concentration was measured by DC assay (U.S. Pat. Nos. 5,000,113, 5,000,114, 5,000,115, Biorad). 30 μg protein out of each sample was separated on a SDS-page gel (3450125, Biorad) and transferred to a nitrocellulose membrane (10600014, Sigma-Aldrich) at 0.4 A for 1 h. The membranes were blocked by 5% BLOT-QuickBlocker in PBS-T at room temperature for 1 h (786-011, Bioscience) and incubated with primary antibodies at 4° C. overnight. Then, fluorophor conjugated secondary antibodies diluted 1:500 in 2×BLOT-QuickBlocker in PBS-T were added onto the membrane for 1 h at room temperature. Protein bands were visualized by a Odyssey® DLx Imaging System (Licor). The following primary antibodies were used: NUDT5 (ab129172, Abeam, 1:1000, anti-rabbit) or NUDT5 (sc-398644, 1:200, anti-mouse), β-actin (sc-69879, Santa Cruz Biotechnology, 1:200) and PPAT (15401-1-AP, Proteintech, 1:1000). The following secondary antibodies were used: Alexa Fluor 750 goat anti-mouse IgG (A21037, Life technologies) and goat anti-rabbit IgG (H+L) cross-adsorbed secondary Antibody, Alexa Fluor 647 (A21244, Life technologies).
HAP-1 WT cells were treated with 100 nM TH5427, dNUDT5 or DMSO for 20 h in a 100 mm dish. […]

With `Cn1c(=O)c2c(nc(N3CCN(C(=O)N4CCC(CN5CCN(c6ccc7c(c6)C(=O)N(C6CCC(=O)NC6=O)C7=O)CC5)CC4)CC3)n2Cc2nnc(-c3ccc(Cl)c(Cl)c3)o2)n(C)c1=O` (stereo not drawn) [dNUDT5, 7-((5-(3,4-dichlorophenyl)-1,3,4-oxadiazol-2-yl)methyl)-8-(4-(4-((4-(2-(2,6-dioxopiperidin-3-yl)-1,3-dioxoisoindolin-5-yl)piperazin-1-yl)methyl)piperidine-1-carbonyl)piperazin-l-yl)-1,3-dimethyl-3,7-dihydro-1H-purine-2,6-dione] the “ternary complex formation between NUDT5 and CRBN” value (NUDT5-CRBN interaction) was “able to induce proficient ternary complex formation”, the “rescue of 6-TG toxicity” value (HAP-1 cells) was “able to rescue 6-TG toxicity” and the “concentration of maximum rescue of cell viability” value (MTHFD1^K56R cells; adenosine supplementation) was 100 nM. For the same compound, the “effect on adenosine toxicity / viability” value (MTHFD1^K56R cells; adenosine-containing media) was “prevented adenosine toxicity”, the “NUDT5 degradation at 100 nM, 20 h (%)” value (NUDT5; 100 nM, 20 h) was 96% and the “concentration beyond which degradation efficiency declines (hook effect)” value (NUDT5; HEK293 and HAP-1 cells) was > 300 nM. The DC50 (NUDT5; HEK293 cells) was 0.5 nM, the “dependence of NUDT5 degradation (rescue experiments)” value (NUDT5; competition with TH5427, MLN4924, MG132, HEK293 cells) was “E3 ligase- and proteasome-dependent” and the “amount of NUDT5 interacting with PPAT” value (NUDT5-PPAT interaction) was “strongly reduced the amount of NUDT5 interacting with PPAT”.
